These results are taken from PMC11098465, “A comparative analysis of peptide-delivered antisense antibiotics using diverse nucleotide mimics” (RNA, 2024).

This assay deals with Salmonella outer membrane. Kind of assay: Outer membrane permeabilization (NPN fluorescence). The format is cell-based, Salmonella enterica serovar Typhimurium strain SL1344. The note with it: KFF-ASOs 10 µM, CTAB 10 µM, PMXB 0.4 µM; added after 14 min. From the text: Because the negASOs are ineffective in bacterial cells despite their activity in cell-free systems, we investigated if these ASOs affected the ability of the KFF carrier peptide to induce OM permeabilization. Therefore, we used the hydrophobic fluorophore N-phenylnaphthylamine (NPN), a dye that turns fluorescent after binding to hydrophobic regions within cell membranes. This only occurs in cells with a compromised OM ([Ghosh et al. 2016]; [Ellis et al. 2019]). […] However, when conjugated to negASOs, the KFF carrier is unable to permeabilize the OM (Fig. 10). This could potentially be due to electrostatic interactions between the negASOs and the positively charged KFF.
The experiments were performed by modifying previously published protocols ([Ghosh et al. 2016]; [Ellis et al. 2019]; [Zheng et al. 2021]). Salmonella (WT SL1344, JVS-1574) were grown overnight in 4 mL MHB medium at 37°C (with shaking at 220 rpm). Then the culture was diluted 1:100 and grown until OD600 0.5 (∼2 × 10^8 cfu/mL). This culture was harvested and washed two times with 5 mM HEPES and further diluted to OD600 0.2 in 5 mM HEPES supplemented with 5 mM Glucose (pH 7.2). These cells were then incubated with NPN (Sigma) at a final concentration of 10 µM. One hundred and ninety microliters of NPN-treated cells were transferred into 96-well back plates with transparent bottoms and fluorescence (excitation = 350 nm, emission = 420 nm) was recorded for 60 min (reading was performed every minute) using a Synergy H1 plate reader (Biotek). On the 14th minute, 10 µL of the test compounds (10 µM final concentration) was added into the wells. CTAB (Sigma) 10 µM (final concentration) or PMXB (Sigma) (final concentration of 0.4 µM) were used as positive controls, while water was used as negative control. The fluorescence of the wells was monitored using the same settings as above. The plots were created using OrginPro 2023. The experiment was performed twice and Figure 10 is a representative example of two independent experiments.

On to Polymyxin B [reference compound], for which the “Outer membrane permeabilization, NPN fluorescence (in words)” value is “cause a rapid increase in fluorescence”. `CCCCCCCCCCCCCCCC[N+](C)(C)C.[Br-]` [CTAB, reference compound]: the “Outer membrane permeabilization, NPN fluorescence (in words)” value was “cause a rapid increase in fluorescence”.
